Laboratory results taken from patent publication US20060275238A1, “Topical cosmetic formulations for regulating and improving the moisture content of the skin” (Goldschmidt GmbH, priority 2005, published 2006).

Key:
[1] = In vitro sorption-desorption properties of moisturizers (weight increase vs relative atmospheric humidity); format: physicochemical; conditions: 24 h each; for ability to absorb water as the atmospheric humidity increases: 20% to 80% r.h. in 10% stages; for ability to store/hold the absorbed water as the atmospheric humidity decreases (hysteresis behavior): 80% r.h. reduced in 10% stages
Description: In order to determine the in vitro sorption-desorption properties of moisturizers, these were firstly dried overnight at 80° C. and 0% relative humidity (r.h.) and then cooled to room temperature in a desiccator. 4-5 g of the moisturizer substance were then placed into a Petri dish and stored for 24 h at 20% rh. The weight increase was recorded and the atmospheric humidity was then increased by 10%. After 24 h, the weight of the moisturizer was monitored again. This was repeated in stages to an atmospheric humidity of 80%. The atmospheric humidity was then reduced again every 24 h in 10% stages and the weight decrease was recorded.

skin = assay: Corneometry, skin moisture before and after single application of test formulation; format: in vivo, subjects; conditions: single application in O/W cream, contact time two hours; concentration as in 10% active ingredient combination 1
Description: Corneometry is a noninvasive method which permits conclusions relating to the skin moisture on the basis of changes in the physical parameters within the stratum corneum. In practice, 12 to 15 subjects are recruited whose skin moisture is measured before and after single application of the test formulations using a HM99 corneometer (Courage & Khazaka, Cologne, Germany) according to the manufacturer's instructions.
After climatization of the subjects over 15 minutes under defined conditions of 22° C. and 55% relative humidity, the skin hydration is determined corneometrically and afterwards 50 mg of the test formulation are applied to a skin area each with a diameter of 2.5 cm, and after […] any residues of the formulation are removed.
After a contact time of two hours, the skin hydration is measured again following climatization of 15 minutes (22° C., 55% rel. humidity). An increase of the relative corneometer units CU correlates directly with improved skin hydration.
The concentrations of the individual substances were chosen so that they correspond to the concentration in 10% active ingredient combination 1.

SMILES	ability to absorb water as the atmospheric humidity increases [1]	ability to store/hold the absorbed water as the atmospheric humidity decreases (hysteresis behavior) [1]	ΔCU, increase in the relative corneometer units compared with the blank formulation (skin) [CU]
OCC(O)CO [glycerol, 1,2,3-propanetriol, reference compound]	absorb the largest possible amounts of water	not able to do	
CC(O)C(=O)[O-].[K+] (stereo not drawn) [potassium lactate, Potassium lactate]			1.6
C[N+](C)(C)CC(=O)[O-] [trimethylglycine, Trimethylglycine]	very good ability to absorb water	able to hold onto the absorbed water	3.2
NC(N)=O [urea, Urea]	very good ability to absorb water	able to hold onto the absorbed water	3.6
